Test results published in patent US20180207190A1, “COMPOSITION CONTAINING NAD FOR PREVENTING AND TREATING OBESITY OR IMPAIRED GLUCOSE TOLERANCE” (UNIVERSITY OF ULSAN FOUNDATION FOR INDUSTRY COOPERATION, priority 2015, published 2018).
Entries after “also recorded” stand apart in the source; their conditions may differ.

Tests used:
HFD-fed obese mice [1] = test: Chronic IP injection for 4 weeks: body weight and side effects in ND-fed and HFD-fed (diet-induced obesity) mice; assay type: in vivo, mouse; conditions: for body weight vs saline-injected group: NAD+ 0.3 mg/kg/day IP once a day for 4 weeks, 0.3 mg/kg/day
Procedure: (§1) Mature male C57BL/6 mice were purchased from ORIENT BIO Inc. (Gyeonggi-do, Republic of Korea). Unless stated otherwise, the mice were freely fed a standard diet (Cargill Agri Purina, Inc., Seoul, Republic of Korea). To establish a diet-induced obesity (DIO) model, the mice were fed a HFD (60% fats, Research Diet Co., New Brunswick, N.J.) for 20 weeks. The animals were raised at a controlled temperature (22±1° C.) under a 12-hour light/dark cycle (a light condition from 08:00 a.m. to 8:00 p.m.) For experiments of single administration of NAD+ and NMN, 8-week-old mice were fasted overnight, and NAD+(purchased from Sigma, administered at 0.3, 1 and 3 mg/kg) or NMN (purchased from Sigma, administered at 30, 100, and 300 mg/kg) was intraperitoneally administered to the mice between 09:00 a.m. and 10:00 a.m. For ? chronic NAD+ treatment, NAD+(0.3 mg/kg body weight/day) was intraperitoneally injected once to the mice immediately before the lights went off for 4 weeks.
Additionally, an effect of chronic IP injection of NAD+ on the body weight was also examined (FIG. 4). The mice were divided into four groups (a group of ND-fed mice to which saline was IP injected, a group of ND-fed mice to which NAD+ was IP injected, a group of HFD-fed mice to which saline was IP injected, and a group of HFD-fed mice to which NAD+ was IP injected), and NAD+ was intraperitoneally administered to the mice at a dose of 0.3 mg/kg/day once a day for 4 weeks.

C57BL/6 mice [2] = test: Oral glucose tolerance test; assay type: in vivo, mouse; conditions: NAD+ 0.3, 1, 3 mg/kg single IP 30 minutes before oral glucose 2 g/kg, overnight-fasted normal mice
Procedure: For an oral glucose tolerance test, the mice were fasted overnight, 2 g/kg (body weight) of glucose was orally administered (by oral gavage), and blood glucose levels were measured immediately before oral administration (0 minute) and 15, 30, 60, and 120 minutes after the oral administration. 30 minutes prior to glucose administration, NAD+(0.3, 1 and 3 mg/kg) was intraperitoneally administered.
To examine an effect of single IP injection of NAD+ on the glucose tolerance, an oral glucose tolerance test was performed on ND-fed C57BL/6 mice that were fasted overnight. A single IP dose of NAD+(0.3, 1 and 3 mg/kg) was administered to the mice, and glucose (2 g/kg) was orally administered thereto after 30 minutes. Thereafter, blood glucose levels were measured at 15, 30, 60, and 120 minutes.

rodents = conditions: exogenous NAD+ administration; cited from earlier work
C57BL/6 mice [3] = test: Feeding study, single intraperitoneal administration: food intake; assay type: in vivo, mouse
Procedure: as §1
(§2) A predetermined dose of NAD+ or NMN was administered to C57BL/6 mice, which were fasted overnight, during an early light phase (09:00 to 11:00) by using a given method. The same amount of a vehicle (i.e., physiological saline) was administered to the control mice.

C57BL/6 mice [4] = test: Feeding study, single intravascular (ICV, third ventricle cannula) administration: food intake and body weight; assay type: in vivo, mouse
Procedure: as §1
Permanent 26-gauge stainless steel cannulae were surgically inserted into the third ventricles of mice (a cannula insertion position: 1.8 mm posterior to bregma and 5.0 mm below the sagittal sinus). For surgery, the mice were anesthetized with a mixture of Zoletil and Rumpun (2:1 v/v, 10 μL/g body weight). The exact cannulation positions of the cannulae were confirmed through a positive dipsogenic response after angiotensin II (50 ng) was administered. Only the mice in which the cannulae were precisely positioned were used for data analyses. After a recovery period of 7 days after the surgery, the mice were daily touched for a predetermined time over a week to minimize a stress response to the experiments. Immediately before administration, NAD+ and NMN were dissolved in 0.9% saline and used. The NAD+ and NMN were dissolved in 2 μL of saline for intravascular administration.
as §2

HFD-fed obese mice [5] = test: Circadian rhythm of feed intake and physical activity (CLAMS) after chronic IP injection; assay type: in vivo, mouse; conditions: NAD+ 0.3 mg/kg/day IP 4 weeks, CLAMS 24 hours
Procedure: as §1
The feed intake and physical activity of mice were measured using a comprehensive laboratory animal monitoring system (CLAMS, Columbus Instruments) (n=4 to 5). The light and feeding conditions were maintained under the same conditions as in a home cage. Water was freely provided during an observation period.
Further, an effect of chronic IP injection of NAD+ on the feed intake was verified as follows. To examine a chronic effect of the NAD+ intraperitoneal injection on the feed intake, NAD+(0.3 mg/kg) or saline was administered to the following three groups of mice once a day for 4 weeks: an IP saline-injected group of mice fed the ND, an IP saline-injected group of mice fed the HFD, and an IP NAD+-injected group of mice fed the HFD.
To test an effect of habitual IP injection of NAD+(0.3 mg/kg/day) on mobility in an obese animal model, the mice were divided into three groups, that is, an IP saline-injected group of mice fed the ND, an IP saline-injected group of mice fed the HFD, and an IP NAD+-injected group of mice fed the HFD and the mobility thereof was evaluated.

[6] = test system: cultured neuronal cells, astrocytes, and cardiac myocytes; conditions: cells treated with NAD+; cited from earlier work
[7] = test system: diabetic mice fed a high-fat diet; conditions: cited from earlier work
[8] = NR supplementation; cited from earlier work
NQO1 = NQO1 (Homo sapiens, UniProt P15559); conditions: cited from earlier work
Sequence of NQO1 (P15559 whole entry, species assumed): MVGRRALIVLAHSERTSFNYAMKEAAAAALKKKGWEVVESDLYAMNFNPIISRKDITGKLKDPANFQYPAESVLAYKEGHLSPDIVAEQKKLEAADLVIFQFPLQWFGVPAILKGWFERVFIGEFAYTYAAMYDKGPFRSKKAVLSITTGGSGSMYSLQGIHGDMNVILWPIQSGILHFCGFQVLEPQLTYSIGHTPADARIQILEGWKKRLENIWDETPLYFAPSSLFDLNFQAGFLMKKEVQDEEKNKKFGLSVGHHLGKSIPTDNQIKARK

NC(=O)c1ccc[n+]([C@@H]2O[C@H](COP(=O)([O-])OP(=O)(O)OC[C@H]3O[C@@H](n4cnc5c(N)ncnc54)[C@H](O)[C@@H]3O)[C@@H](O)[C@H]2O)c1 [NAD+, nicotinamide adenine dinucleotide]
body weight vs saline-injected group (HFD-fed obese mice [1]; HFD-fed obese mice): significantly reduced; also recorded: significant effect; also recorded: significant decrease
side effects of chronic injection (HFD-fed obese mice [1]; NAD+ 0.3 mg/kg/day IP, 4 weeks): did not cause any notable side effects
body weight vs saline-injected group (HFD-fed obese mice [1]; ND-fed normal mice): did not induce a weight loss; also recorded: not significantly different
blood glucose level at 15 and 30 minutes after glucose administration vs saline (C57BL/6 mice [2]): significantly reduced; also recorded: much lower blood glucose level
ischemic brain damage and cardiomegaly (rodents): improves
food intake at 4 hours vs saline (C57BL/6 mice [3]; NAD+ 1 mg/kg single IP): significantly reduced
food intake at 4 hours vs saline (C57BL/6 mice [3]; NAD+ 0.3, 1, 3 mg/kg single IP, overnight-fasted mice): significantly reduced
weight gain / body weight for 24 hours vs saline (C57BL/6 mice [4]; NAD+ 0.2 pmol single intracerebroventricular (ICV)): significantly suppressed; also recorded: reduced the body weight; also recorded: significantly reduced level of weight gain
food intake vs saline (C57BL/6 mice [4]; NAD+ 0.2, 1, 2 pmol single intracerebroventricular (ICV), overnight-fasted mice, observed for 24 hours, effect maintained at 24 hours): significantly reduced; also recorded: reduced food intake
time at which decrease in food intake started after administration (C57BL/6 mice [4]; NAD+ single intracerebroventricular (ICV)): 2 h
daytime feed intake (HFD-fed obese mice [5]): significantly reduced
nighttime feed intake (HFD-fed obese mice [5]): did not significantly reduce
food intake frequency (HFD-fed obese mice [5]; 0.3 mg/kg/day): suppressed a high food intake frequency of the obese mice to a normal mouse level; also recorded: significantly reduced
nighttime physical activity (mobility) (HFD-fed obese mice [5]; 0.3 mg/kg/day): remarkably restored
apoptosis induced by oxidative stress [6]: reduced

NC(=O)c1ccc[n+]([C@@H]2O[C@H](COP(=O)([O-])O)[C@@H](O)[C@H]2O)c1 [NMN, nicotinamide mononucleotide, reference compound]
food intake at 4 hours vs saline (C57BL/6 mice [3]; NMN 300 mg/kg single IP): significantly reduced level of food intake
food intake at 24 hours vs control (C57BL/6 mice [3]; NMN 30, 100, 300 mg/kg single IP): did not have a reduced food intake; also recorded: not maintained; also recorded: no decrease in food intake
food intake vs saline (C57BL/6 mice [4]; NMN 10 pmol single ICV, 24 hours after injection): reduced; also recorded: much lower level of food intake
change in body weight for 24 hours vs control (C57BL/6 mice [4]; NMN 10, 100, 1,000 pmol single ICV): no significant difference; also recorded: did not cause a change in body weight
NAD+ level in the liver, adipose tissues, and skeletal muscles ([7]; IP NMN, HFD-fed diabetic mice): successfully increases
glucose tolerance ([7]; NMN, diabetic mice): restores damaged glucose tolerance

NC(=O)c1ccc[n+]([C@@H]2O[C@H](CO)[C@@H](O)[C@H]2O)c1 [NR, nicotinamide riboside]
NAD+ level in peripheral tissues such as liver and skeletal muscles [8]: increases
NAD+ level in the brain [8]: does not increase

CC1(C)CCC2=C(O1)c1ccccc1C(=O)C2=O [βL]
NAD+, NAD+/NADH, and NADP+/NADPH ratios (NQO1): increase
